Assay results from patent US10336792B2, “Antimicrobial peptide dendrimers” (priority 2014, dated 2019).
Values after ≈ are worked out from the molar mass of the structure shown. Positions of bridges follow the written chain, without caps; N, C: chain ends. Residues, ends and D or L forms follow the SMILES beside them. Groups on a side chain read outwards from the residue. Chains are numbered I, II in the order given.

Assays:
[1] = system: Pseudomonas aeruginosa (strain PA01); assay: microbe, parasite or virus in culture; format: cell-based
In short: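 P. aeruginosa PAO1 grown overnight in LB, diluted to OD600 0.001 and mixed with ⅔-step peptide dilutions, then incubated at 37 °C for 18–24 h. After MTT staining, the lowest concentration with no visible growth was read by eye as the MIC.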

[2] = system: Pseudomonas aeruginosa (strain PA01); format: cell-based; details: 25 μg/mL; 0, 1, 3, 6, 8, 24 h
Protocol: Cell viability was assayed against Pseudomonas aeruginosa (strain PA01). A colony of bacteria was grown in LB-medium overnight at 37° C. The concentration was quantified by measuring absorbance at 600 nm and diluted to OD600=0.1 (1×10^8 CFU/mL). The samples were prepared as stock solutions of 1 mg mL^−1 in H2O and diluted in LB to a concentration of 50 μg/mL in a 96-well microtiterplate (TPP, untreated). The sample solutions (50 μL) were mixed with the diluted bacterial suspension with an OD600 nm of 0.001 (50 μL). […] The plates were incubated at 37° C. for 1, 3, 6, 8 and 24 h. Each time point was assayed on a separate plate. For each test, two columns of the plate were kept for sterility control (SC, broth only) and growth control (GC, broth with bacterial inoculums, no antibiotics). After incubation 15 μL of WST-8 working solution (3.31 mg/mL WST-8 (Ochem Incorporation), 0.074 mg/mL PES (phenazine ethosulfate)) was added to each well and cells were incubated at 37° C. until GC had desired value. After the reaction took place, the final absorbance was read at 450 nm. For calculations, the value of the GC was set to 100% cell viability and the value of the negative control (no bacteria, SC) was set to 0% cell viability. […]
In order to determine the killing kinetics of AMPDs the amount of living bacteria was measured as a function of time after incubation with the AMPDs. […]

[3] = 5(6)-Carboxyfluorescein leakage from lipid vesicles; details: 10 mM TRIS, 107 mM NaCl, pH 7.4; peptide added at 50 s
Protocol: (§1) Preparation A thin lipid film was prepared by evaporating a solution of 25 mg Egg PC or Egg PG in 1 mL MeOH/CHCl3 1/1 on a rotary evaporator (rt) and then in vacuo overnight. The resulting film was hydrated with 1 mL buffer (50 mM CF, 10 mM TIRS, 10 mM NaCl, pH 7.4) for 30 min, subjected to freeze-thaw cycles (7×) and extrusion (15×) through a polycarbonate membrane (pore size 100 nm). Extravesicular components were removed by gel filtration (Sephadex G-50) with 10 mM TRIS, 107 mM NaCl, pH 7.4. Final conditions: ˜2.5 mM Egg PC or Egg PG; inside: 50 mM CF, 10 mM TIRS, 10 mM NaCl, pH 7.4; outside: 10 mM TRIS, 107 mM NaCl, pH 7.4.
(§2) Experiment Egg PC or Egg PG stock solutions (37.5 μL) were diluted with a buffer (10 mM TRIS, 107 mM NaCl, pH 7.4) and placed in a thermostated fluorescence cuvette (25° C.) and gently stirred (total volume in the cuvette ˜3000 μL; final lipid concentration ˜31.25 μM). CF efflux was monitored at λem 517 nm (λex 492 nm) as a function of time after addition of 20 μL of peptide dendrimer in buffer (10 mM TRIS, 107 mM NaCl, pH 7.4) with final concentrations of 1, 5, 7.5, 10, 15, 20, 25, 30 μg/mL at t=50 s and 1.2% trition X-100 (30 μL, 0.012% final concentration) at t=300 s. Fluorescence intensities were normalized to fractional emission intensity I(t) using I(t)=(It−I0)/(I∞−I0) where I0 It at peptide dendrimer addition, I∞=It at saturation of lysis.
Bacterial membranes contain relatively large amounts of exposed anionic lipids, while the outer leaflet of the membranes of plants and animals is composed mainly of lipids with no net charge. The charge composition of such membranes can be mimicked with phospholipid vesicles. Large unilamellar vesicles (LUVs) composed of the neutral phospholipid with PC (phosphatidyl choline) or with PG (phosphatidyl glycerol) with negative charges were prepared encapsulating 5(6)-carboxyfluorescein (CF). […] The higher the concentration of MSt-112 the higher is the CF leakage (FIG. 6A). […] Overall the active AMPDs interact with the negatively charged membrane and release the CF.

[4] = as above; details: 10 mM TRIS, 107 mM NaCl, pH 7.4; peptide added at 50 s; remark: listed apart in the source
Protocol: as §1, §2

[5] = system: P. aeruginosa PT1482 (A-), PT1485 (A-B-), PT1149 (A-B-C-algC), PT331 (Z61) (LPS mutants); format: cell-based, Pseudomonas aeruginosa; details: MH medium, 12-18 h
Protocol: (§3) Antimicrobial activity was assayed against P. aeruginosa PA01 (WT), P. aeruginosa PT1482 (A-), PT1485 (A-B-), PT1149 (A-B-C-algC), PT331 (Z61) (LPS mutants), P. aeruginosa PEJ2.6, PEJ9.1, ZEM1.A, ZEM9.A (clinical isolates from Université de Genève/Centre Médical Universitaire), Burkholderia cenocepacia (B. ceno), Staphylococcus aureus (S. aureus, MRSA strain) and Acinetobacter baumannii (A. baum) (clinical isolates from Université de Genève/Centre Médical Universitaire). To determine the minimal inhibitory concentration (MIC), microdilution broth method was used. A colony of bacteria was grown in MH-medium overnight at 37° C. The samples were prepared as stock solutions of 8 mg mL^−1 in H2O, diluted to the beginning concentration of 32, 64, 128 or 256 μg/mL in 300 μL MH-medium, added to the first well of 96-well microtiterplate (TPP, untreated) and diluted serially by ½. The concentration of the bacteria was quantified by measuring absorbance at 600 nm and diluted to OD600=0.022 in MH-medium. The sample solutions (150 μL) were mixed with 4 μL diluted bacterial suspension with a final inoculation of about of 5×10^5 CFU. The plates were incubated at 37° C. until satisfactory growth (˜18 h). For each test, two columns of the plate were kept for sterility control (SC, broth only) and growth control (GC, broth with bacterial inoculums, no antibiotics). The minimal inhibitory concentration (MIC) was defined as the lowest concentration of the antimicrobial substance (peptide dendrimer) that inhibited visible growth of the tested bacteria with the unaided eye. For microbiological study Polymyxin was used as references.

P. aeruginosa PA01 (WT) = format: cell-based, Pseudomonas aeruginosa; details: WT
Protocol: as §3

[6] = system: Bacillus subtilis (strain BR151); format: cell-based; details: strain BR151
In short: (§4)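 Broth microdilution MIC in LB; overnight cultures diluted to OD600 0.001 and mixed 1:1 with ⅔-serially diluted samples (stock 1 mg mL^−1 in H2O), 37° C for 18-24 h. MTT (0.1%) added; MIC read by eye as lowest concentration inhibiting visible growth (yellow).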

[7] = system: Escherichia coli (strain DH5α); format: cell-based; details: DH5α
In short: as §4

[8] = system: P. aeruginosa PEJ2.6, PEJ9.1, ZEM1.A, ZEM9.A (clinical isolates); format: cell-based, Pseudomonas aeruginosa; details: PEJ2.6, PEJ9.1, ZEM1.A, ZEM9.A (clinical isolates)
Protocol: as §3
Ten of the most promising compounds (FIG. 5) were tested for their efficiency against four clinical isolates of P. aeruginosa (ZEM9.A, ZEM1.A, PEJ2.6, PEJ9.1), one S. aureus (COL, MRSA reference strain) and one A. baumannii strain. For the experiments in Genève the peptide dendrimers and reference compounds (polymyxin) were dissolved in PBS and the assay was carried out in Müller-Hinton (MH) broth with a two-fold dilution.

Acinetobacter baumannii = format: cell-based
In short: (§5)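 Broth microdilution in Müller-Hinton medium, two-fold serial dilutions from a starting 32–256 μg/mL, compounds dissolved in PBS; inoculum about 5×10^5 CFU, incubated 37° C ~18 h. MIC taken as lowest concentration with no visible growth by eye; polymyxin as reference.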

[9] = system: Staphylococcus aureus (COL, MRSA reference strain); format: cell-based; details: COL, reference strain
In short: as §5

male wistar rats = assay: In-vivo toxicity study, single i.v. injection; design: species or system rat
Source text: 4-6 weeks old male wistar rats (weight range 200-500 g) were used in toxicity experiments. Rats were obtained from Zentrale Tierställe Bern (Department of Clinical Research from University of Bern) and housed 4 per cage. Each experimental group includes two rats. All procedures, care and handling of the animals were reviewed and approved by the Veterinärdienst of Kanton Bern, Schweiz and execute in collaboration with the group of Prof. Hugues Abriel from Department of Clinical Research from University of Bern.
Rats were anesthetized with 4% isoflurane and 1 L/min oxygen in an induction chamber. When the rats were sleeping they were transferred on a clinical drape and anesthetized with 1-2% isoflurane and 0.8 l/min oxygen via a mask. The tail was warmed up with warm water and disinfected with 70% ethanol. The intravenous (i.v.) injections into the tail vein included a single dose of the AMPD of 2 mg/kg rat in 500 μL PBS. Before injection each rat was weighted individually and the exact dosage was determined. All rats, including control groups with no injection and i.v. injection of 500 μL PBS, were monitored for their survival and behavior for two days.
The compounds MSt-112, a 3rd generation AMPD with KL motive, MSt-181 its D-enantiomer analogue, MSt-242, a the 3rd generation with RL motive, and MSt-114 with Tyr instead of Lys in the 3rd generation were used for in vivo experiments with male wistar rats to assess their toxicity. These compounds were selected due to their high potencies and high MHCs values, which are at least 10 times higher than their activities. Each compound (concentration of 2 mg/kg) was applied to two rats by intravenous injection into the tail vein to observe if the AMPDs are well tolerated or may cause adverse effects. The concentration used was approx. 5-10 times higher than the MICs. […] The behaviour of the rats was normal. […] Therefore it seems that rats tolerate AMPDs very well, without visible site effects or even casualties.

MIC ([1]; Pseudomonas aeruginosa, PAO1, LB medium, serial 2/3 dilution, 37 °C, 18-24 h, read-out: MIC P. aeruginosa PAO1) [µg/mL] | Compound | killing kinetics (bacterial survival over 24 hours) [2] | CF leakage from phosphatidylglycerol LUVs [3] | CF leakage from phosphatidylcholine LUVs [4] | MIC P. aeruginosa PAO1 ([1]; strain) [µg/mL] | MIC PT1482 (A-) [5] [µg/mL] | MIC PT1485 (AB-) [5] [µg/mL] | MIC (MH) (P. aeruginosa PA01 (WT)) [µg/mL] | MIC PAO1 (P. aeruginosa PA01 (WT)) [µg/mL] | MIC B. subtilis BR151 [6] [µg/mL] | MIC E. coli DH5α [7] [µg/mL] | MIC P. aeruginosa MDR clinical isolate PEJ2.6 [8] [µg/mL] | MIC P. aeruginosa MDR clinical isolate PEJ9.1 [8] [µg/mL] | MIC P. aeruginosa MDR clinical isolate ZEM1A [8] [µg/mL] | MIC P. aeruginosa MDR clinical isolate ZEM9A [8] [µg/mL] | MIC A. baumannii ATCC19606 (Acinetobacter baumannii) [µg/mL] | MIC S. aureus COL [9] [µg/mL] | visible effects and behaviour after injection (male wistar rats; 2 mg/kg single i.v. dose into tail vein, two rats) | survival rate (male wistar rats; 2 mg/kg single i.v. dose, monitored 2 days) [%]
0.5 (≈ 1.07 µM) | NC[C@H]1O[C@H](O[C@H]2[C@H](O)[C@@H](O[C@H]3O[C@H](CO)[C@@H](O)[C@H](N)[C@H]3O)[C@H](N)C[C@@H]2N)[C@H](N)C[C@@H]1O [Tobramycin] | kill P. aeruginosa immediately | do not show release of CF | no CF release |  |  |  |  |  |  |  |  |  |  |  |  |  |  | 
 | CC(C)C[C@H](NC(=O)[C@H](CCCCN)NC(=O)[C@H](CCCCNC(=O)[C@H](CC(C)C)NC(=O)[C@H](CCCCN)NC(=O)[C@H](CCCCNC(=O)[C@H](CC(C)C)NC(=O)[C@H](CCCCN)NC(=O)[C@H](CCCCNC(=O)[C@H](CC(C)C)NC(=O)[C@@H](N)CCCCN)NC(=O)[C@H](CC(C)C)NC(=O)[C@@H](N)CCCCN)NC(=O)[C@H](CC(C)C)NC(=O)[C@H](CCCCN)NC(=O)[C@H](CCCCNC(=O)[C@H](CC(C)C)NC(=O)[C@@H](N)CCCCN)NC(=O)[C@H](CC(C)C)NC(=O)[C@@H](N)CCCCN)NC(=O)[C@H](CC(C)C)NC(=O)[C@H](CCCCN)NC(=O)[C@H](CCCCNC(=O)[C@H](CC(C)C)NC(=O)[C@H](CCCCN)NC(=O)[C@H](CCCCNC(=O)[C@H](CC(C)C)NC(=O)[C@@H](N)CCCCN)NC(=O)[C@H](CC(C)C)NC(=O)[C@@H](N)CCCCN)NC(=O)[C@H](CC(C)C)NC(=O)[C@H](CCCCN)NC(=O)[C@H](CCCCNC(=O)[C@H](CC(C)C)NC(=O)[C@@H](N)CCCCN)NC(=O)[C@H](CC(C)C)NC(=O)[C@@H](N)CCCCN)C(N)=O [MSt-112, (KL)8(KKL)4(KKL)2(KKL)] (I: H-KLK([Leu-Lys])KLKKLKKL-NH2 / II: H-KLK([Leu-Lys])KLKKL / III: H-KLK([Leu-Lys])KL / IV: H-KLK([Leu-Lys])KL; amide I:6-IV:C, I:9-II:C, II:6-III:C) |  |  |  | 2 (≈ 0.441 µM) | 4 (≈ 0.882 µM) | 4 (≈ 0.882 µM) | 4 (≈ 0.882 µM) | 4 (≈ 0.882 µM) | 3 (≈ 0.662 µM) | 4 (≈ 0.882 µM) | 16 (≈ 3.53 µM) | 64 (≈ 14.1 µM) | 4 (≈ 0.882 µM) | 32 to 64 | 8 to 16 | >64 | No visible effect | 100
